Measurements as given in US5380759A, “Methyl N-[6-(3,4,5-trimethoxybenzloxy)imidazo[1,2-b]pyridazin-2-zyl]carbamate used to treat leukemia” (priority 1987, dated 1995).
Like-named read-outs stand apart in the source and are kept apart here.

Key:
[1] = system: P388/O tumour; experiment: Lymphocytic leukaemia P388/O test; format: in vivo, mouse
Description: C. Lymphocytic Leukemia P388/O Test
CD2-F1 mice, of the same sex, weighing within a 3 gram range surrounding 20 g, are used for this test. Control and test animals are injected intraperitoneally with a suspension of 10^6 viable P388/O tumour cells on day 0. In each test several dose levels which bracket the LD20 for the compound are evaluated; each dose level group contains 6 animals. The test compounds are prepared either in physiologic saline containing 0.05% Tween 80 or distilled water containing 5% dextrose and are administered intraperitoneally on days 1,5 and 9 relative to tumour implant. Doses are on a mg/kg basis according to individual animals' body weights. The day of death for each animal is recorded and the median day of death identified for each group. The difference between the median survival time for treated and control groups is expressed as a percentage increase in life span (% ILS).

[2] = system: WiDr human colon adenocarcinoma cells; experiment: In vitro activity against human tumour cell line WiDr (proliferation); format: cell-based; settings: 96 h
Description: (§1) Cells from the human tumour cell lines DLD-1, HCT-116, WiDr and A549 are exposed to serially diluted concentrations of test compounds over a 96 hour period in culture. The ability of such cells to proliferate over the test period is determined.
(§2) Cells in log growth are plated into 96 well multiwell tissue culture dishes in 100 μl/well of RPMI 1640 culture medium supplemented with 10% foetal calf serum, antibiotics and test compound. All compounds are formulated initially at appropriate concentrations in DMSO, the final concentrations in this solvent being twenty times that required in the plate. A final 1 in 10 dilution in complete medium is then made before adding 100 μl to each well of the plate. All compounds are evaluated at concentrations ranging serially in four fold decrements from a top concentration some four fold greater than that already known to inhibit the proliferation of cells from the mouse lymphoid neoplasm, P388D1 by about 80 to 90 percent in a primary proliferative assay.
(§3) After 96 hours the proliferation of cells exposed to test compound is compared with control untreated cells by one of two methods:
(§4) b) 20 μl of MTT (5 mg/ml in PBS) is added to each well. After an incubation period of 4 hours the medium from each well is aspirated and replaced with 200 μl DMSO to dissolve the formazan crystals formed. Absorbances are read by an ELISA plate spectrophotometer at a wavelength of 540 nm. The IC50 is defined as that concentration of drug which decreases absorbance to 50% of that in control (drug-free) cultures. This method is used for the WiDr, HCT-116 and A549 cell lines.

[3] = system: HCT-116 human colon carcinoma cells; experiment: In vitro activity against human tumour cell line HCT-116 (proliferation); format: cell-based; settings: HCT-116, 96 h
Description: as §1, §2, §3, §4

[4] = LD20 (Mouse); format: in vivo; settings: i.p. days 1, 5 and 9, CD2-F1 mice, observed up to 14 days
[5] = system: tubulin; experiment: Turbidimetric assay of tubulin polymerisation; format: biochemical, horse; settings: 37° C., increase in A350nm 10 min after lag phase; read-out: Total tubulin polymerisation IC50
Description: A) Tubulin Polymerisation Assay
1. Preparation of tubulin
All manipulations are performed at 4° C. unless otherwise specified. The horse brain is washed in ice-cold BBG buffer and superficial meninges and blood vessels removed. After weighing, cerebral cortices are chopped, homogenised in 75 ml BBG buffer/100 g brain, centrifuged at 6500 g for 15 min and after removal of […], re-centrifuged at 100,000 g for 75 min. The volume of the supernatant (Vml) is measured and V/10 ml 10 mM GTP (Li salt) in H2 O added. The mixture is incubated in sealed centrifuge tubes (30 min, 34° C.) in a shaking water bath to polymerise the tubulin. After polymerisation the tubes are balanced and centrifuged at 100,000 g, (1 h at 27° C.) in a pre-warmed rotor. The high-speed pellet is resuspended in V/4 ml BB buffer and the preparation stirred on ice for 30 min and centrifuged at 100,000 g (1 h at 4° C.) to remove the cold-stable microtubules. An equal volume of BB2G buffer is added to the supernatant which is frozen rapidly in 5 ml samples in plastic weighing dishes floated on a solid CO2 /ethanol slurry, and stored overnight at -80° C. After ca. 18 hours the frozen samples of tubulin are thawed, 10 mM GTP in H2 O added to give a final concentration of 1 mM, and the new volume (Wml), is measured. The polymerisation/depolymerisation cycle is repeated exactly as above but substituting W for V to give twice-cycled tubulin.
2. Turbidimetric Assay of Tubulin Polymerisation
Apparatus: recording spectrophotometer with a 6-position, thermostatted cuvette holder; full scale deflection=0.2 absorbance units.
In a 1 ml spectrophotometer cuvette are mixed 100 μl 10 mM GTP (Li salt) made up in BB buffer, 10 μl H2 O or DMSO-depending on selected drug solvent, BB buffer and tubulin preparation such that the final increase in A350nm is 0.15 units after 16 mins (approx. 100 μl of tubulin prep. or 2.5 mg protein) in a final volume of 1 ml at 37° C. All reagents are stored on ice.
Polymerisation is initiated by raising the temperature to 37° C. and the increase in A350nm of triplicate samples against a reference cuvette is recorded. The reference sample includes a similar incubation mixture either without tubulin or with the addition of 1 mM Ca^2+. The increase over initial A350nm 10 min after the completion of lag phase (control polymerisation is 80% complete within this time) is calculated and expressed as a percentage of the control value, for a range of drug concentrations. The drug concentration required to give a 50% change (IC50) in the control value is determined.

[6] = system: DLD-1 human colon carcinoma cells; experiment: In vitro activity against human tumour cell line DLD-1 (proliferation); format: cell-based; settings: DLD-1, 96 h
Description: as §1, §2, §3
a) Culture supernatants are aspirated and cells fixed and stained by adding a solution of methylene blue (5 g per liter of 50% ethanol: water, 100 μl/well). After 30 minutes at room temperature unbound stain is washed off by immersing plates in water. Stained cells are solubilised overnight using 1% Sarkosyl (Sigma) in phosphate-buffered saline (100 μl/well). Absorbances are read by an ELISA plate spectrophotometer at a wavelength of 620 nm. The IC50 is defined as that concentration of drug which decreases absorbance to 50% of that in control (drug-free) cultures. This method is used for the DLD-1 cell line.

[7] = system: P388 D1 cells; experiment: P388 D1 colony-forming assay; format: cell-based; settings: Mus musculus
Description: B) P338D1 Colony-forming Assay
In this assay, cells from an in vitro-adapted line of the mouse lymphoid neoplasm, P388 are first exposed to serially diluted concentrations of test compound over a 24 hour period in culture. Thereafter, the ability of such treated cells to form discrete colonies over a 14 day period after resuspension in a semi-solid drug-free medium is determined.
Initially cells in log growth are plated into individual 25 cm^2 tissue culture flasks each containing a final volume of 5 mls of Hepes buffered RPMI 1640 culture medium supplemented with 10 percent foetal calf serum, antibiotics and test compound. All compounds are formulated initially at appropriate concentrations in DMSO, 25 microliters of which is then added to each flask. All compounds are evaluated at concentrations ranging serially in four fold decrements from a top concentration some four fold greater than that already known to inhibit the proliferation of these cells by about 80 to 90 percent in the primary proliferative assay.
After 24 hrs exposure to the test compound the cells are counted and a known number of live cells transferred to a 15 ml centrifuge tube to which 4 mls of a 0.25 percent low temperature gelling agarose solution in complete RPMI tissue culture medium is then added. After 13 days incubation at 37° C., 1 ml of 1% p-Iodonitrotetrazolium violet is added to the top of each tube and allowed to permeate through the agarose for a further 24 to 48 hrs. This dye is metabolised by living cells to produce an insoluble red crystalline product which facilitates counting of the colonies. Samples are taken from each tube and the number of colonies containing a minimum of 50 cells is determined. The concentration of compound necessary to inhibit colony formation by 50 percent relative to that of control cells incubated under identical conditions but in the absence of the test compound is determined.

[8] = system: A549 human lung carcinoma cells; experiment: In vitro activity against human tumour cell line A549 (proliferation); format: cell-based; settings: A549, 96 h
Description: as §1, §2, §3, §4

[9] = P388D1, 24 h exposure, 14 days colony growth, read-out: IC50 colony formation
[10] = Mus musculus, P388, ip, 200 mg/kg i.p. days 1, 5 and 9
[11] = Mus musculus, P388, ip, 675 mg/kg i.p. days 1, 5 and 9

CCOC(=O)Nc1cn2nc(OCc3cc(OC)ccc3OC)ccc2n1 [Example 2, Ethyl N-[6-(2,5-Dimethoxybenzyloxy)imidazo[1,2-b]pyridazin-2-yl]carbamate]
ILS at 7.3 mg/kg ([1]; Mus musculus, P388, ip): 31% | IC50 [2]: 4.57 nM | IC50 [3]: 2.8 nM | LD50 [4]: 5 mg/kg | IC50 [5]: 140 nM | IC50 [6]: 2.9 nM | IC50 ([7]; P388D1, read-out: IC50 colony formation): 0.516 nM | IC50 [8]: 3.42 nM

COC(=O)Nc1cn2nc(OCc3cc(OC)ccc3OC)ccc2n1 [Example 3, Methyl N-[6-(2,5-Dimethoxybenzyloxy)imidazo[1,2-b]pyridazin-2-yl]carbamate]
ILS at 50 mg/kg ([1]; Mus musculus, P388, ip, 50 mg/kg i.p. days 1, 5 and 9): 136% | IC50 ([2]; MTT, read-out: IC50): 0.92 nM | IC50 ([3]; MTT, read-out: IC50): 1.91 nM | LD50 [4]: 200 mg/kg | IC50 [5]: 410 nM | IC50 ([6]; methylene blue, read-out: IC50): 1.35 nM | IC50 [7, 9]: 2.15 nM | IC50 [8]: 1.92 nM

CCCOC(=O)Nc1cn2nc(OCc3cc(OC)c(OC)c(OC)c3)ccc2n1 [Example 4, n-Propyl N-[6-(3,4,5-trimethoxybenzyloxy)imidazo[1,2-b]pyridazin-2-yl]carbamate]
ILS at 20 mg/kg ([1]; Mus musculus, P388, ip, 20 mg/kg i.p. days 1, 5 and 9): 44% | IC50 ([2]; MTT, read-out: IC50): 11 nM | IC50 ([3]; MTT, read-out: IC50): 5.45 nM | LD50 [4]: 20 mg/kg | IC50 [5]: 370 nM | IC50 ([6]; methylene blue, read-out: IC50): 6.63 nM | IC50 [7, 9]: 5.12 nM | IC50 ([8]; MTT, read-out: IC50): 20.8 nM

CCCCOC(=O)Nc1cn2nc(OCc3cc(OC)c(OC)c(OC)c3)ccc2n1 [Example 5, n-Butyl N-[6-(3,4,5-trimethoxybenzyloxy)imidazo[1,2-b]pyridazin-2-yl]carbamate]
ILS at 150 mg/kg ([1]; Mus musculus, P388, ip, 150 mg/kg i.p. days 1, 5 and 9): 61% | IC50 ([2]; MTT, read-out: IC50): 3.65 nM | IC50 ([3]; MTT, read-out: IC50): 3.3 nM | LD50 [4]: 140 mg/kg | IC50 [5]: 490 nM | IC50 ([6]; methylene blue, read-out: IC50): 7.34 nM | IC50 [7, 9]: 12.6 nM | IC50 ([8]; MTT, read-out: IC50): 4.36 nM

COC(=O)Nc1cn2nc(OCc3cccc4ccccc34)ccc2n1 [Example 9, Methyl N-[6-(1-Naphthylmethyloxy)imidazo[1,2-b]pyridazin-2-yl]carbamate]
ILS at 200 mg/kg [1, 10]: 180% | LD50 [4]: 450 mg/kg | IC50 [5]: 890 nM

COC(=O)Nc1cn2nc(OCc3cc(OC)cc(OC)c3)ccc2n1 [Example 11, Methyl N-[6-(3,5-Dimethoxybenzyloxy)imidazo[1,2-b)pyridazin-2-yl]carbamate]
30 Day survivors ([1]; 675 mg/kg i.p. days 1, 5 and 9): 1/6 | 60 Day Survivors ([1]; 675 mg/kg i.p. days 1, 5 and 9): 0/6 | ILS at 675 mg/kg [1, 11]: 155% | LD50 [4]: > 450 mg/kg | IC50 [5]: 4240 nM | IC50 [7, 9]: 41 nM

COC(=O)Nc1cn2nc(OCc3cccc(C)c3)ccc2n1 [Example 12, Methyl N-[6-(3-methylbenzyloxy)imidazo[1,2-b]pyridazin-2-yl]carbamate]
ILS at 675 mg/kg [1, 11]: 170% | LD50 [4]: > 450 mg/kg | IC50 [5]: 1210 nM

COC(=O)N(C)c1cn2nc(OCc3cc(OC)c(OC)c(OC)c3)ccc2n1 [Example 26, Methyl N-[N-Methyl-6-(3,4,5-trimethoxybenzyloxy)imidazo[1,2-b]pyridazin-2-yl]carbamate]
ILS at 300 mg/kg ([1]; Mus musculus, P388, ip, 300 mg/kg i.p. days 1, 5 and 9): 263% | LD50 [4]: 450 mg/kg

COC(=O)Nc1cn2nc(OCc3cc(OC)c(OC)c(OC)c3Br)ccc2n1 [Example 31, Methyl N-[6-(2-bromo-3,4,5-trimethoxybenzyloxy)imidazo[1,2-b]pyridazin-2-yl]carbamate]
LD50 [4]: 165 mg/kg

COC(=O)Nc1cn2nc(OCc3cccc(OC)c3OC)ccc2n1 [Example 32, Methyl N-[6-(2,3-dimethoxybenzyloxy)imidazo[1,2-b]pyridazin-2-yl]carbamate]
60 Day Survivors ([1]; 750 mg/kg i.p. days 1, 5 and 9): 1/6 | ILS at 750 mg/kg ([1]; Mus musculus, P388, ip, 750 mg/kg i.p. days 1, 5 and 9): 280% | LD50 [4]: > 450 mg/kg

CCOc1c(OC)cc(COc2ccc3nc(NC(=O)OC)cn3n2)cc1OC [Example 33, Methyl N-[6-(3,5-dimethoxy-4-ethoxybenzyloxy)imidazo[1,2-b]pyridazin-2-yl]carbamate]
60 Day Survivors ([1]; (Day 51), 200 mg/kg i.p. days 1, 5 and 9): 3/6 | ILS at 200 mg/kg [1, 10]: 240%
